Results from patent US20240043442A1, “SELECTIVE ESTROGEN RECEPTOR DEGRADERS AND USES THEREOF” (InventisBio LLC, priority 2016, published 2024).

What was measured:
ER [1] = molecular target: T1, ER (Homo sapiens (Human), UniProt P03372); settings: intramuscular injection monthly; cited from earlier work
[2] = Human hepatocyte clearance study; assay type: in vitro ADME; settings: pooled cryopreserved human hepatocytes (suspension); for hepatocyte CLint at 1 µM / half-life at 1 µM: human; for hepatocyte CLint at 1 µM: read-out: Human In vitro Clint (μL/min/10^6 cells); for half-life at 1 µM: read-out: Human In vitro T1/2; for CLint scaled at 1 µM: human hepatocytes, scaling factor 2544.3, read-out: Human Scale-up Clint
Experimental: (§1) The in vitro hepatocyte clearance of compound described here was studied using pooled human hepatocytes purchased from BioreclamationlVT (Westbury, NY, Cat #X008001, Lot #TQJ). Assay was conducted according to manufacture's instruction. Briefly, mM tock solutions of test compound and positive control (Verapamil) were prepared in 100% DMSO. Thawing media (50 mL) used in the study consists of: 31 mL Williams E medium (GIBCO Cat #12551-032); 15 mL isotonic percoll (GE Healthcare Cat #17-0891-09); 500 uL 100×GlutaMax (GIBCO Cat #35050); 750 uL HEPES (GIBCO Cat #15630-080); 2.5 mL FBS (Corning Cat #35-076-CVR); 50 uL human insulin (GIBCO Cat #12585-014) and 5 uL dexamethasone (NICPBP). Incubation media is made of Williams E medium supplemented with 1×GlutaMax. Thawing medium and supplement incubation medium (serum-free) were placed in a 37° C. water bath for at least 15 minutes prior to use. Compound stock solutions were diluted to 100 μM by combining 198 μt of 50% acetonitrile/50% water and 2 μL of 10 mM stock solution. Verapamil was use as positive control in the assay. Vials of cryopreserved hepatocytes were removed from storage and thawed in a 37° C. water bath with gentle shaking. Contents of the vial were poured into the 50 mL thawing medium conical tube. Vials were centrifuged at 100 g for 10 minutes at room temperature. Thawing medium was aspirated and hepatocytes were re-suspended with serum-free incubation medium to yield ˜1.5×10^6 cells/mL. Hepatocyte viability and density were counted using a Trypan Blue exclusion, and then cells were diluted with serum-free incubation medium to a working cell density of 0.5×10^6 viable cells/mL. Then, a portion of the hepatocytes at 0.5×10^6 viable cells/mL was boiled for 5 min prior to adding to the plate as negative control to eliminate the enzymatic activity so that little or no substrate turnover should be observed. The boiled hepatocytes were used to prepare negative samples. Aliquots of 198 μL hepatocytes were dispensed into each well of a 96-well non-coated plate. The plate was placed in the incubator on an orbital shaker at 500 rpm for approximately 10 minutes. Aliquots of 2 μL of the 100 μM test compound or positive control were added into respective wells of the non-coated 96-well plate to start the reaction. This assay was performed in duplicate. The plate was incubated in the incubator on an orbital shaker at 500 rpm for the designed time points. Twenty-five microliter of contents were transferred and mixed with 6 volumes (150 μL) of cold acetonitrile with IS (200 nM imipramine, 200 nM labetalol and 200 nM diclofenac) to terminate the reaction at time points of 0, 15, 30, 60, 90 and 120 minutes. Samples were centrifuged at 3,220 g for 25 minutes and aliquots of 150 μL of the supernatants was used for LC-MS/MS analysis. For data analysis, all calculations were carried out using Microsoft Excel. Peak areas were determined from extracted ion chromatograms. The in vitro half-life (t1/2) of parent compound was determined by regression analysis of the percent parent disappearance vs. time curve. The in vitro half-life (in vitro t1/2) was determined from the slope value: in vitro t1/2=0.693/k. […] Scaling factors for in vivo intrinsic clearance prediction using human hepatocytes are listed as: liver weight (g liver/kg body weight): 25.7; hepatocyte concentration (10^6 cells/g liver): 99; scaling factor: 2544.3.

pooled human hepatocytes = test: Human hepatocyte clearance study; assay type: in vitro ADME; settings: human hepatocytes 0.5x10^6 viable cells/mL, 120 min
Experimental: as §1

ER [3] = molecular target: T1, ER; test: MCF-7 ER degradation assay (high content imaging); assay type: cell-based; settings: MCF-7 cells, 1 nM compound, DMSO control as baseline; for MCF7 ER Degradation at 4 hr (%): 4 hours treatment; for MCF7 ER Degradation at 24 hr (%): 24 hours treatment
Experimental: The level of ER degradation by SERD described in this patent was analyzed by cell based high content imaging method. […] Then, 1 μL of compound solution (in DMSO) was added to the cells to make a final concentration of 1 nM per each well of treated cells. DMSO at the same final concentration (%) per each well was used to serve as negative control on each plate. After 4 hours or 24 hours of treatment at 37° C. with 5% CO2, the cells were fixed and permeabilized. Media from each well was aspirated and cells were gently washed with 1×PBS for 5 minutes and the wash procedure was repeated 3 times. Cells was then fixed with 4% formaldehyde freshly made in 1×PBS at room temperature for 20 minutes, followed by gentle washing with 1×PBS, 3 times for 5 minute each. The assay plate was incubated with 200 μl of 1×PBS containing 0.2% Triton-X100 for 5 minutes at room temperature, cells were then washed again with 1×PBS 3 times for 5 minutes each. After this, cells were incubated with the blocking buffer (1×PBS with 5% BSA) at room temperature for 1 hour. For immunostaining, blocking buffer was removed and primary anti-ER antibody (ER1D5, Santa Cruz) diluted in blocking buffer (1:400) was added to each well and cells were incubated overnight at 4° C. The next day, cells were washed with 1×PBS for 3 times with 5 minute each. […] Cells were washed with 1×PBS for 3 times with 5 minute each time. Cells were incubated with DAPI (Beyotime; 1 μg/ml) for 10 minutes and washed with 1×PBS for 3 times with 5 minute each time. […] SERD induced ER degradation in the MCF-7 cells were measured using DMSO negative control as the baseline.

[4] = tested on: breast cancer cell line MCF-7; test: MCF-7 cell growth study (celltiter-glo luminescent viability assay); assay type: cell-based, human; settings: Homo sapiens, MCF7, 144 h, MCF-7 cells, 6 days incubation; read-out: IC50 (nM), cell growth inhibition;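 note: viability read by luminescence after compound exposure, relative to DMSO vehicle-treated wells on the same plate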
Experimental: Compound activity was analyzed using celltiter-glo luminescent viability assay (Promega #G7572) in breast cancer cell line MCF-7. Cells grown in log phase are trypsinized and seeded into a 96-well cell culture plate at a density of 2×10^3 per well and incubated overnight at 37° C. with 5% CO2 in humidified culture chamber. The next day, compounds were prepared in 100% DMSO and were serially diluted and added into cells in the following final concentrations: 316, 100, 31.6, 10, 3.16, 1, 0.32, 0.1, 0.03, 0.01, 0.003 and 0.001 nM. As a control, same volume and concentration of DMSO vehicle control solution was added to the control wells in each plate. The cells were incubated with compounds at 37° C. culture chamber for 6 days. Promega's celltiter-glo kit was used to analyze the cell viability, according to manufacture's instruction. Briefly, fifty microliter of celltiter-glo reagent was added to each well, plate (covered with aluminum foil) was gently vibrated for 10 min to induce cell lysis at room temperature. Luminescence was measured using a SPECTRAmax i3 reader.

xMCF-7 xenograft tumor = test: Human breast cancer xMCF-7 xenograft efficacy study in mouse; assay type: in vivo; settings: for tumor growth inhibition and tumor regression (FIG. 2): 2 mg/kg orally, once daily for 28 days, start at tumor ~250 mm^3
Experimental: To investigate the in vivo efficacy of SERD compounds described in this application, female nude mice were inoculated with human ER+ breast cancer cells xMCF-7. xMCF-7 cells are derived from MCF-7 (ATCC) tumor grown in the nude mice. Briefly, female balb/c mice (age 6-7 wk) were first inoculated subcutaneously on the back with estrogen pellet (0.5 mg, 60-day release from Innovative Research of America, Cat #SE-121). Two days later, each mouse was inoculated with 5 million xMCF-7 cells, prepared as 0.2 ml cell suspension in 1:1 mix of Eagle's MEM to cell culture media and Matrigel (Corning Cat #354234) for each injection. After tumor size reached ˜235 mm^3, mice with xMCF-7 xenograft tumor are randomized to 10 mice per group and started receiving drug treatment.
In another xMCF-7 study, treatment initiated when tumor reached ˜250 mm^3. Each drug was given at 2 mg/kg orally, once daily for 28 days.

[5] = Mouse PK study (iv 3 mpk, po 30 mpk); assay type: in vivo, male CD1 mice; settings: male, CD1, whole blood; for clearance: 3 mg/kg, IV 3 mpk, read-out: Mouse IV 3 mpk CL (converted); for AUC(0-t) / half-life: 30 mg/kg, PO 30 mpk; for AUC(0-t): read-out: Mouse PO 30 mpk AUC last; for half-life: read-out: Mouse PO 30 mpk T½ (converted)
Experimental: Mouse PK study (iv 3 mpk, and po 30 mpk) was conducted using male CD1 mice (25-33 g) obtained from SLAC Laboratory Animal Co., LTD of Shanghai). Compound is prepared with the following formulation: 5% DMSO, 5% Solutol HS 15 and 9% HPBCD in water. For intravenous (iv) dose at 3 mpk and oral (po) dose at 30 mpk, the compound is formulated at the concentration […] and […], respectively. Compound formulation is freshly made prior to dosing in the morning. Oral dosing is via the use of oral gavage at 10 mL/kg, while iv dosing is via tail vein at 5 mL/kg. Three mice are used for each dosing route per compound per dose. Serial blood sample (30 uL whole blood at each time point) is collected into the K2EDTA tubes via facial vein at the following time points: 5 min (for iv route only), 30 min, 1, 2, 4, 6, 8, 12 and 24 hours. For each blood sample collected, immediately transfer 20 uL blood sample and mix well with 60 uL water in a 96-well plate (whole blood:water=1:3 v/v). Diluted blood samples are stored at −80C freezer until analysis. For analysis, an aliquot of 20 μL sample was added with 200 μL IS (Glipizide, 100 ng/mL) in ACN. The mixture was vortexed for 2 min and centrifuged at 5800 rpm for 10 min. An aliquot of 2 μL supernatant was injected for LC-MS/MS analysis. Compound at 2.0-3000 ng/mL in CD1 mouse diluted blood is used for calibration curve. Pharmacokinetic data are obtained and described in the table below: […]

T1 sequence (P03372 whole entry): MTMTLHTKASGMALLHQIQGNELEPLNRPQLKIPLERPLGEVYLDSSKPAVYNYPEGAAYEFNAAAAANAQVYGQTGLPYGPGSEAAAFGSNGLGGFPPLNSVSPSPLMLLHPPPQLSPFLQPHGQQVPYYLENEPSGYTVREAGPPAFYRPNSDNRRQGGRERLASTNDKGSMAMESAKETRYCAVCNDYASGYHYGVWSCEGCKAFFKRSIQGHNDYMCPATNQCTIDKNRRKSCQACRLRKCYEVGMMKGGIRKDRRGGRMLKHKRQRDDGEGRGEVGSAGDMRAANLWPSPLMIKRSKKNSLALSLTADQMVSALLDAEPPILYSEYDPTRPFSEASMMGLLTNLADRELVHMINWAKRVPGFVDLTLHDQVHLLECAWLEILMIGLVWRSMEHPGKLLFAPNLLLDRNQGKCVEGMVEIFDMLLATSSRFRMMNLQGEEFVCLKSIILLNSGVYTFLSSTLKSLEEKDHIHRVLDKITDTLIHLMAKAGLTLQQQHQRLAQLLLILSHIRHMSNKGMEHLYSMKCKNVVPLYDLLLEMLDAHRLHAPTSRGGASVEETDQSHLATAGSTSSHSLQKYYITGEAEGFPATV

Compound | hepatocyte CLint at 1 µM [2] [µL/min/1e6 cells] | half-life at 1 µM [2] [h] | CLint scaled at 1 µM [2] [L/h/kg] | IC50 [4] [nM] | clearance [5] [L/h/kg] | AUC(0-t) [5] [µM·h] | half-life [5] [h] | ER degradation in clinical samples (ER [1]) [%] | Human Hepatocyte Remaining Percentage @ 120 min (%) (pooled human hepatocytes) | MCF7 ER Degradation at 4 hr (%) (ER [3]) | MCF7 ER Degradation at 24 hr (%) (ER [3]) | tumor growth inhibition and tumor regression (FIG. 2) (xMCF-7 xenograft tumor) | tumor growth inhibition (tumor volume change, FIG. 1) (xMCF-7 xenograft tumor; oral 5 mg/kg or 30 mg/kg once a day for 28 days, fulvestrant 250 mg/kg subcutaneously, start at tumor ~235 mm^3)
C[C@]12CC[C@@H]3c4ccc(O)cc4C[C@@H](CCCCCCCCC[S+]([O-])CCCC(F)(F)C(F)(F)F)[C@H]3[C@@H]1CC[C@@H]2O (stereo partly shown) [Fulvestrant, reference compound] | 33 | 0.7 | 5.16 |  |  |  |  | ~50 | 12 | 29 | 15 |  | 
C[C@@H]1Cc2c([nH]c3ccccc23)[C@@H](c2c(F)cc(OCCN3CC(CF)C3)cc2Cl)N1CC(C)(F)F [Compound 12] |  |  |  | 0.26 |  |  |  |  |  |  |  | more efficacious than AZD9496 | 
CC/C(=C(/c1ccc(/C=C/C(=O)O)cc1)c1ccc2[nH]ncc2c1)c1ccc(F)cc1Cl [GDC-0810, reference compound] | 24.6 | 0.933 | 3.78 |  | 0.92 | 80 | 2.9 |  | 24 |  |  |  | 

Second part, led by results:

hepatocyte CLint at 1 µM [2] [µL/min/1e6 cells] | half-life at 1 µM [2] [h] | CLint scaled at 1 µM [2] [L/h/kg] | IC50 [4] [nM] | clearance [5] [L/h/kg] | AUC(0-t) [5] [µM·h] | half-life [5] [h] | Compound | ER degradation in clinical samples (ER [1]) [%] | Human Hepatocyte Remaining Percentage @ 120 min (%) (pooled human hepatocytes) | MCF7 ER Degradation at 4 hr (%) (ER [3]) | MCF7 ER Degradation at 24 hr (%) (ER [3]) | tumor growth inhibition and tumor regression (FIG. 2) (xMCF-7 xenograft tumor) | tumor growth inhibition (tumor volume change, FIG. 1) (xMCF-7 xenograft tumor; oral 5 mg/kg or 30 mg/kg once a day for 28 days, fulvestrant 250 mg/kg subcutaneously, start at tumor ~235 mm^3)
 |  |  | 0.8 | 0.08 | 658 | 62 | C[C@@H]1Cc2c([nH]c3ccccc23)[C@@H](c2c(Cl)cc(/C=C/C(=O)O)cc2Cl)N1CC(C)(F)F [Compound 25] |  |  |  |  | more efficacious than AZD9496 | more efficacious in vivo than fulvestrant, GDC-0810 and AZD9496
9 | 2.55 | 1.38 |  | 1.14 | 85 | 3.5 | C[C@@H]1Cc2c([nH]c3ccccc23)[C@@H](c2c(F)cc(/C=C/C(=O)O)cc2F)N1CC(C)(C)F [AZD9496, reference compound] |  | 58 | 17 | 23 |  | 
